Drawing on ChEMBL document CHEMBL1914318, “Anti-hepatocellular carcinoma activity using human HepG2 cells and hepatotoxicity of 6-substituted methyl 3-aminothieno[3,2-b]pyridine-2-carboxylate derivatives: in vitro evaluation, cell cycle analysis and QSAR studies” (Eur J Med Chem, 2011), this text covers GI50 and Activity for 33 compounds.

Active and inactive are the calls of the source. The rule behind the calls is not given here.

In series [1] the test system is HepG2. The series can be described thus: Growth inhibition of human HepG2 cells after 72 hrs by SRB assay. The format is functional. The conditions noted are these: HepG2, 72 h. (In general: Sulforhodamine B stains cellular protein and so reports cell mass.)
A short description of series [2]: Growth inhibition of porcine primary hepatocytes after 72 hrs by SRB assay. The format is cell-based, Sus scrofa, Hepatocyte. Conditions: pig.
For series [3], the system named is HepG2. Nature of the series: Induction of cell cycle arrest in human HepG2 cells assessed as increase in sub-G1 peak at 4.1 uM after 72 hrs by propidium iodide staining-based flow cytometric analysis. The format is functional.
Series [4] deals with HepG2. Nature of the series: Induction of cell cycle arrest in human HepG2 cells assessed as increase in DNA content at G2/M phase at 4.1 uM after 72 hrs by propidium iodide staining-based flow cytometric analysis. Type of series: functional. A general note: A flow cytometer gives signals particle by particle.
Series [5] concerns HepG2. Nature of the series: Induction of cell cycle arrest in human HepG2 cells assessed as decrease in DNA content at S phase at 4.1 uM after 72 hrs by propidium iodide staining-based flow cytometric analysis. Type of series: functional.

Turning to `COC(=O)c1sc2cc(-c3ccc(OC)nc3)cnc2c1N`, the GI50 (usually the concentration that inhibits growth by half) in series [1] is above 125 µM. Besides, the GI50 at 72 h in series [2] is above 125 µM.
In series [1], `COC(=O)c1sc2cc(-c3ccc4c(ccn4C)c3)cnc2c1N` returned a GI50 of 117 µM. Halving of growth in series [2] (GI50 at 72 h) required 106 µM.
On the same counts, the results for `COC(=O)c1sc2cc(-c3cnn(C)c3)cnc2c1N` are above 125 µM and above 125 µM.
On the same counts, the results for `COC(=O)c1sc2cc(-c3ccc(C#N)cc3)cnc2c1N` are above 125 µM and 96.7 µM.
On the same counts, the results for `COC(=O)c1sc2cc(C#Cc3ccsc3)cnc2c1N` are 30 µM and 30.7 µM.
Regarding `COC(=O)c1sc2cc(C#Cc3ccc(F)cc3)cnc2c1N`, the GI50 in series [1] was above 125 µM. Besides, the 50% growth inhibitory concentration (GI50) at 72 h in series [2] is above 125 µM.
As for `COC(=O)c1sc2cc(C#Cc3ccc(OC)cc3)cnc2c1N`, in series [1], the GI50 is above 125 µM. The compound also returned a GI50 at 72 h in series [2] of 76.5 µM.
For `COC(=O)c1sc2cc(-c3cc(OC)cc(OC)c3)cnc2c1N`, the concentration for 50% growth inhibition (GI50) in series [1] was determined as 125 µM. For the same compound, halving of growth in series [2] (GI50 at 72 h) required 25 µM.
On the same counts, the results for `COC(=O)c1sc2cc(-c3ccc(F)nc3)cnc2c1N` are above 125 µM and 47 µM.
On the same counts, the results for `COC(=O)c1sc2cc(-c3ccccc3N)cnc2c1N` are 21.7 µM and above 125 µM.
Compound `COC(=O)c1sc2cc(-c3ccc4ncccc4c3)cnc2c1N` gave a concentration for 50% growth inhibition (GI50) in series [1] above 125 µM. The same compound came in with a GI50 at 72 h in series [2] of 14.1 µM.
On the same counts, the results for `COC(=O)c1sc2cc(-c3cncc4ccccc34)cnc2c1N` are above 125 µM and 25.4 µM.
On the same counts, the results for `COC(=O)c1sc2cc(-c3ccc(-c4cccs4)s3)cnc2c1N` are 70.6 µM and 106 µM.
The compound `COC(=O)c1sc2cc(-c3cnc(OC)nc3OC)cnc2c1N` showed a GI50 in series [1] of 23.8 µM. Further, growth in series [2] was halved (GI50 at 72 h) at 4.4 µM.
On the same counts, the results for `COC(=O)c1sc2cc(-c3cccnc3)cnc2c1N` are above 125 µM and above 125 µM.
On the same counts, the results for `COC(=O)c1sc2cc(-c3ccoc3)cnc2c1N` are above 125 µM and above 125 µM.
On the same counts, the results for `COC(=O)c1sc2cc(C#Cc3ccccc3OC)cnc2c1N` are above 125 µM and 121 µM.
In the case of `COC(=O)c1sc2cc(C#Cc3ccc(N)cc3)cnc2c1N`, growth in series [1] was halved (GI50) at 25.9 µM. Moreover, the GI50 at 72 h in series [2] was above 125 µM.
On the same counts, the results for `COC(=O)c1sc2cc(C#Cc3cccc(OC)c3)cnc2c1N` are above 125 µM and above 125 µM.
On the same counts, the results for `COC(=O)c1sc2cc(C#Cc3ccccn3)cnc2c1N` are 75.7 µM and 56.9 µM.
Regarding `COC(=O)c1sc2cc(C#Cc3cccc(N)c3)cnc2c1N`, the result in series [3], in series [4] and in series [5] was Active. Besides, the GI50 in series [1] turned out to be 1.2 µM. For the same compound, the GI50 at 72 h in series [2] was above 125 µM.
For `COC(=O)c1sc2cc(-c3ccc4ccccc4c3)cnc2c1N`, in series [1], the GI50 was above 125 µM. The compound further showed a concentration for 50% growth inhibition (GI50) at 72 h in series [2] of 102 µM.
On the same counts, the results for `Cc1c2ccncc2c(C)c2c1[nH]c1ccccc12` [ELLIPTECINE] are 2.9 µM and 3.3 µM.
On the same counts, the results for `COC(=O)c1sc2cc(-c3ccsc3)cnc2c1N` are above 125 µM and 25.2 µM.
On the same counts, the results for `COC(=O)c1sc2cc(-c3ccc(OC)cc3)cnc2c1N` are above 125 µM and above 125 µM.
The compound `COC(=O)c1sc2cc(C#Cc3ccccc3N)cnc2c1N` gave a GI50 in series [1] above 125 µM. Further, the GI50 at 72 h in series [2] was above 125 µM.
Regarding `COC(=O)c1sc2cc(-c3cnc4ccccc4c3)cnc2c1N`, the GI50 in series [1] was above 125 µM. Also, halving of growth in series [2] (GI50 at 72 h) required 32.5 µM.
As for `COC(=O)c1sc2cc(-c3ccc(C(F)(F)F)cc3)cnc2c1N`, the GI50 in series [1] was above 125 µM. The 50% growth inhibitory concentration (GI50) at 72 h in series [2] is above 125 µM.
The compound `COC(=O)c1sc2cc(C#Cc3ccc(N(C)C)cc3)cnc2c1N` showed a concentration for 50% growth inhibition (GI50) in series [1] of 67.6 µM. The compound also gave a 50% growth inhibitory concentration (GI50) at 72 h in series [2] above 125 µM.
On the same counts, the results for `COC(=O)c1sc2cc(C#Cc3cccnc3)cnc2c1N` are above 125 µM and above 125 µM.
On the same counts, the results for `COC(=O)c1sc2cc(C#Cc3ccccc3F)cnc2c1N` are above 125 µM and above 125 µM.
In turn, `COC(=O)c1sc2cc(-c3ccc(C(C)=O)cc3)cnc2c1N` came in with a GI50 in series [1] above 125 µM. The compound further came in with a GI50 at 72 h in series [2] above 125 µM.
Take `COC(=O)c1sc2cc(C#Cc3ccccc3)cnc2c1N`: the GI50 in series [1] was above 125 µM. Further, the GI50 at 72 h in series [2] was found to be 95.7 µM.
